Assay results as given in EP1310250A1, “Use of the compound 2-methoxyphenyl-1-methyl-5P-methylbenzoyl-pyrrol-2-acetamido acetate for the production of an antiinflammatory drug with prevention of gastric hypersecretion and renal impairment” (MEDOSAN Ricerca S.r.l., priority 1997, dated 1999).
“And” between values parts separate entries of the source, which are not always exact repeats. Identical values can stand only once. Marks after values point to notes of the source that are not given here.

Columns and labels:
[1] = test system: rat gastric mucosa; details: male, Wistar, in vivo, po, 4 days
Protocol: The animals entered in the trial, randomized and divided into groups of 6 rats each, were fasted for 16 h prior to treatment, with access to water ad libitum. They were re-fed 1 h after drug administration. The compound 2-methoxyphenyl-1-methyl-5p-methylbenzoyl-pyrrol-2-acetamido acetate and the other reference NSAIDs, suspended in 1% carboxymethylcellulose (CMC) solution, were orally administered by gastric gavage in a volume of 6ml/kg for four consecutive days. Controls received the vehicle in the same way as the treated animals. 4 h after the last administration the animals were killed by ether overdose; the stomachs were removed, rinsed with 10 ml of saline and immersed in 1% formalin. They were later opened along the greater curvature and the mucosa examined for lesions.
The seriousness of the lesion was quantified according to a scale graduated from 1 to 3 according to the size of the lesions: 1= ulcer < 1mm; 2= ulcer 1-2mm; 3= ulcer > 2mm. The total sum was divided by 10 to obtain the "erosion index". The gastric lesions were evaluated by two independent investigators under blind conditions according to Main & Whittle method (BJ Pharmac 1975:53; p. 217-224).
Since the average daily dose in man (for the anti-inflammatory activity) is 600 mg, the comparative efficacious dose in the rat is in the ratio of 12:1. More precisely, comparative evaluation with the other NSAID compounds was calculated as follows: 600 mg/die: 50 mg/kg = daily dose of reference NSAID in man: X [formula] where X represents the daily dose of the reference NSAID in rat. This criterion keeps into account the "real" activity ratio in man. In this work the "ratio to rat dosage" has also been included which keeps into account ratios homogeneous to the same animal species. To evaluate the "ratio to rat dosage" the ID50 has been determined using the carrageenin-induced oedema as inflammatory test.
In order to exacerbate possible side effects on the stomach the dosage of amtolmetin guacyl was quadruplicated.

[2] = test system: carrageenin-induced paw oedema; experiment: Determination of ID50, carrageenin-induced paw oedema; type: in vivo, rat; details: five times the oral ID50 for oedema inhibition, 2 h after carrageenin
Protocol: ID50, relative to the products under examination (considered in table 1), has been evaluated using the anti-inflammatory response to carrageenin-induced paw oedema (according to Wong et al, J Pharmacol Exp, 1973:1855; pages 127-138). The products, suspended in 1% CMC, were administered orally in a total volume of 5 ml/rat. 1 h later, 0.1 ml of 1% carrageenin sterile solution was injected into the hind subplantar aponeurosis. Volume of the paw was measured immediately prior to injection of the phlogogen and 2 h thereafter, by means of a plethysmograph. The percentage of inhibition of oedema was calculated as follows: 1 - ΔV treated/ΔV control x 100 [formula] where ΔV = final V - initial V.

[3] = test system: diuresis; experiment: Diuresis in normally hydrated rats; type: in vivo; details: normally hydrated rats treated orally for 8 consecutive days (figure 13)
Protocol: In the course of various studies conducted on animals to show the lack of renal impairment, a test was carried out to compare the diuresis in normally hydrated rats treated orally for 8 consecutive days with amtolmeting guacyl and diclofenac, which is also a NSAID.

[4] = test system: post-traumatic arthralgia; experiment: Clinical trials: analgesic properties in post-traumatic arthralgia; type: in vivo, man; details: Amtolmetin guacyl 600mgx2-daily, Diclofenac 50mgx2-daily, 15 patients each
Excerpt: The same can be said in the treatment of post-traumatic arthralgia.

[5] = test system: gastric mucosa; experiment: Histological evaluation of the gastric mucosa by an independent laboratory; details: single animals; oral gavage: amtolmetin guacyl 50 mg/kg, diclofenac 7.5 mg/kg, tolmetin 66.6 mg/kg
Protocol: In order to obtain a histological evaluation of the results obtained in our laboratories, an independent laboratory was provided with identical samples of the material evaluated by us, under totally blind conditions.
Controls received the vehicle only, also by oral gavage. 4 h after the final administration the animals were killed by ether overdose and the stomachs removed, rinsed in saline and immersed in formalin 4%.

[6] = test system: isolated, perfused, immature rat stomach; experiment: Antisecretive activity in vitro, isolated perfused immature rat stomach; details: agonist Histamine 10^-4 M, antagonist 10^-4 M
Excerpt: Male Wistar rats, 250±10 g b.w. (Charles River, Calco, Como, Italy), quarantined for five days prior to the beginning of the trial and divided into groups of 3 animals per cage, were used for determination of gastric lesions and of ID50 determination. Immature male Wistar rats, 30-45 g b.w. (Harlan Nossan, Milano) were used for the determination of the antisecretory effect on isolated rat stomach. The guinea-pigs used were the Dunkin Hartley guinea-pigs (Harlan Nossan, Milano, Italy).
At the beginning, the isolated, perfused, immature rat stomach, treated externally with the study product, was used. We preferred to use the isolated stomach in toto rather than strips (B.R. No. 18, 19 and 20) in order not to exclude a section of the stomach (the antrum), unimportant for acid secretion but very important for the secretion of bicarbonates and bioactive peptides (b.r. No. 21, 22). The results were encouraging, since amtolmetin guacyl inhibited acid production stimulated by the three classic agonists (histamine, acetilcholine and gastrin) both using varying doses of agonist or varying doses of amtolmetin guacyl (Table 5).
The results are expressed as mean±S.E.

[7] = test system: Adjuvant arthritis; experiment: Adjuvant arthritis: joint inflammation and patellar bone erosion; type: in vivo, rats; details: patellar bone mass; MED 15 25, 50, 100mg/kg, piroxicam 3mg/kg
Protocol: The drugs were administered daily by oral gavage for 4 days (day 0-3); piroxicam and MED 15 were dissolved in 5% Gum arabic + 0.01% Tween 80, and administered in a volume of 0.5ml. Piroxicam was administered as 3mg/kg and MED 15 was administered as 25, 50 and 100mg/kg doses. Table 8 bis illustrating dosage regimes. L=left stifle joint, R=Right stifle joint.
Under halothane anaesthesia, rats received 200µg of heat-killed finely ground Mycobactyerium tubercolosis in 25µl (80mg/10ml sterile saline) injected intra-articulary into the left stifle joint. The contralateral joint received 25µl 0.9% sterile saline. Control animals received 25µl of 0.9% sterile saline in both knees. SGE 50µl microsyringes with a volume lock calibrated at 25µl were used with 30G stainless steel needles. Solutions were prepared sterile, and aseptic technique was used throughout, with sterilisation of syringes between groups.
The rats were killed by carbon dioxide suffocation. The body weight was noted and the skin overlying the stifle joints was divided and the joint diameters assessed in mm using Mitutoyo vernier callipers (530-312, 0.02mm).
The patellae were dissected, weighed (Sartorius, 0.01mg) and then immersed in 1ml digestion buffer (see below) to remove soft tissue.
Digestive buffer was prepared fresh to the following formula; disodium hydrogen orthophosphate 20mM, EDTA 1mM and diothiothreitol at 2mM. […]

O=C(O)Cc1ccccc1Nc1c(Cl)cccc1Cl [Diclofenac sodium, diclofenac sodium]
further gastric findings (table footnotes) [1]: Each value is the mean of 6 rats. ^a)Diffuse haemorrhagic gastritis was also present
Ratio to rat dosage (mg/kg) (ID50 mg/kg x5) [2]: 15.8 mg/kg
diuresis [3]: clear decrease
Duration [4]: 180 min
Latency [4]: 20 min
Max. time effect [4]: 60 min
Macroscopic findings [5]: 2 and 4 and 7
Microscopic findings [5]: 2* and 3* and 9*

Cc1ccc(C(=O)c2ccc(CC(=O)O)n2C)cc1 [Tolmetin, tolmetin]
Gastrolesive index [1]: 79.7
Macroscopic findings [5]: 3 and 0 (2×)
Microscopic findings [5]: 2+ and 0+ and 1+

CN/C(=N/CCSCc1nc[nH]c1C)NC#N [Cimetidine, cimetidine, reference compound]
% inhib. [6]: 78.6%
Δacid ([6]; mean±S.E.): 14.3 ± 7.2 nmol/min

CN1C(C(=O)Nc2ccccn2)=C(O)c2ccccc2S1(=O)=O [Piroxicam, piroxicam]
Ratio to rat dosage (mg/kg) (ID50 mg/kg x5) [2]: 13.8 mg/kg
protection against bone loss [7]: greatest protection against bone loss
